A short description of the data set: Metabolic stability in human liver microsomes.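 Note: NADPH-supplemented incubation in 100 mM potassium phosphate buffer, compound loss sampled at 0, 5, 10, 20, 30 and 60 min by LC-MS/MS, first-order kinetics.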 In kind it is in vitro ADME. The conditions noted are these: LM Clint; human liver microsomes 0.5 mg protein/mL, test compound 1 μM, 37° C., up to 60 min. (Liver microsomes are a subcellular fraction often used to study metabolism.)
Procedure: Test Compound and Control Working Solution Preparation: Working solution: 5 μL of compound and control stock solution (10 mM in dimethyl sulfoxide (DMSO)) were diluted with 495 µL of acetonitrile (ACN) (intermediate solution concentration: 100 μM, 99% ACN).
Preparation Procedure: The appropriate amount of NADPH powder was weighed and diluted into a 10 mM MgCl2 solution (working solution concentration: 10 unit/mL; final concentration in reaction system: 1 unit/mL).
Preparation Procedure: The appropriate concentrations of microsome working solutions were prepared in 100 mM potassium phosphate buffer.
Stop Solution Preparation: Cold (4° C.) acetonitrile (ACN) containing 200 ng/mL tolbutamide and 200 ng/mL labetalol as internal standards (IS) was used as the stop solution.
Dilute liver microsomes to 0.56 mg/mL in 100 mM phosphate buffer.
Transfer 445 μL microsome working solutions (0.56 mg/mL) into pre-warmed ‘Incubation’ plates T60 and NCF60, Then pre-incubate ‘Incubation’ plates T60 and NCF60 for 10 min at 37° C. with constant shaking. Transfer 54 μL liver microsomes to blank plate, then add 6 μL NAPDH cofactor to blank plate, and then add 180 μL quenching solution to blank plate.
2.5.4 Add 5 μL compound working solution (100 μM) into ‘incubation’ plates (T60 and NCF60) containing microsomes and mix 3 times thoroughly.
For the NCF60 plate, add 50 μL of buffer and mix 3 times thoroughly. Start timing; plate will be incubated at 37° C. for 60 min while shaking.
In ‘Quenching’ plate T0, add 180 μL quenching solution and 6 μL NAPDH cofactor. Ensure the plate is chilled to prevent evaporation.
For the T60 plate, mix 3 times thoroughly, and immediately remove 54 μL mixture for the 0-min time point to ‘Quenching’ plate. Then add 44 μL NAPDH cofactor to incubation plate (T60). Start timing; plate will be incubated at 37° C. for 60 min while shaking.
At 5, 10, 20, 30, and 60 min, add 180 μL quenching solution to ‘Quenching’ plates, mix once, and serially transfer 60 μL sample from T60 plate per time point to ‘Quenching’ plates.
For NCF60: mix once, and transfer 60 μL sample from the NCF60 incubation to ‘Quenching’ plate containing quenching solution at the 60-min time point.
All sampling plates are shaken for 10 min, then centrifuged at 4000 rpm for 20 minutes at 4° C.
Transfer 80 μL supernatant into 240 μL HPLC water, and mix by plate shaker for 10 min.
Each bioanalysis plate was sealed and shaken for 10 minutes prior to LC-MS/MS analysis.
The equation of first order kinetics was used to calculate T1/2 and Intrinsic clearance (CLint mic) in (μL/min/mg).
As to `CC(C)n1cnc(-c2ccc(F)cc2)c1-c1nc(C(=O)Nc2ccc(N3CCN(S(N)(=O)=O)CC3)cc2)c[nH]1` [Compound 97, 5′-(4-fluorophenyl)-3′-isopropyl-N-(4-(4-sulfamoylpiperazin-1-yl)phenyl)-1H,3′H-[2,4′-biimidazole]-4-carboxamide], the “Human Liver Microsome (μM/min/mg)” value was “+ (>100 μM/min/mg as)”.

Take `CC(C)n1cnc(-c2ccc(F)cc2)c1-c1nc(C(=O)Nc2ccc(N3CCN(C(N)=O)CC3)cc2)c[nH]1` [Compound 99, N-(4-(4-carbamoylpiperazin-1-yl)phenyl)-5′-(4-fluorophenyl)-3′-isopropyl-1H,3′H-[2,4′-biimidazole]-4-carboxamide]: the “Human Liver Microsome (μM/min/mg)” value is given as “++ (10-100 μM/min/mg as ++)”. In the case of `CC(C)n1cnc(-c2ccc(F)cc2)c1-c1nc(C(=O)Nc2ccc(CCC(=O)O)cc2)c[nH]1` [Compound 102, 3-(4-(5′-(4-fluorophenyl)-3′-isopropyl-1H,3′H-[2,4′-biimidazole]-4-carboxamido)phenyl)propanoic acid], the “Human Liver Microsome (μM/min/mg)” value is on record as “+++ (1-10 μM/min/mg as +++)”. Next, `CC(C)n1cnc(-c2ccc(F)cc2)c1-c1nc(C(=O)Nc2ccc(CCO)cc2)c[nH]1` [Compound 111, 5′-(4-fluorophenyl)-N-(4-(2-hydroxyethyl)phenyl)-3′-isopropyl-1H,3′H-[2,4′-biimidazole]-4-carboxamide]: “++ (10-100 μM/min/mg as ++)”.

Turning to `CC(C)n1cnc(-c2ccc(F)cc2)c1-c1nc(C(=O)Nc2ccc(C(=O)O)cc2)c[nH]1` [Compound 113, 4-(5′-(4-fluorophenyl)-3′-isopropyl-1H,3′H-[2,4′-biimidazole]-4-carboxamido)benzoic acid], the “Human Liver Microsome (μM/min/mg)” value is listed as “+++ (1-10 μM/min/mg as +++)”. Next, `CC(C)n1cnc(-c2ccc(F)cc2)c1-c1nc(C(=O)Nc2ccc(N(CCO)CCO)cc2)c[nH]1` [Compound 116, N-(4-(bis(2-hydroxyethyl)amino)phenyl)-5′-(4-fluorophenyl)-3′-isopropyl-1H,3′H-[2,4′-biimidazole]-4-carboxamide]: “+++ (1-10 μM/min/mg as +++)”; `CC(C)n1cnc(-c2ccc(F)cc2)c1-c1nc(C(=O)Nc2ccc(N3CCN(CCO)CC3)cc2)c[nH]1` [Compound 117, 5′-(4-fluorophenyl)-N-(4-(4-(2-hydroxyethyl)piperazin-1-yl)phenyl)-3′-isopropyl-1H,3′H-[2,4′-biimidazole]-4-carboxamide]: “++ (10-100 μM/min/mg as ++)”.

Regarding `CN1CCN(c2ccc(NC(=O)c3c[nH]c(-c4c(-c5ccc(F)cc5)ncn4C)n3)cc2)CC1` [Compound 119, 5′-(4-fluorophenyl)-3′-methyl-N-(4-(4-methylpiperazin-1-yl)phenyl)-1H,3′H-[2,4′-biimidazole]-4-carboxamide], the “Human Liver Microsome (μM/min/mg)” value was “++ (10-100 μM/min/mg as ++)”. Next, `CN1CCN(c2ccc(NC(=O)c3c[nH]c(-c4c(-c5ccc(F)cc5)ncn4CC(F)(F)F)n3)cc2)CC1` [Compound 120, 5′-(4-fluorophenyl)-N-(4-(4-methylpiperazin-1-yl)phenyl)-3′-(2,2,2-trifluoroethyl)-1H,3′H-[2,4′-biimidazole]-4-carboxamide]: “++ (10-100 μM/min/mg as ++)”; `CC(C)n1cnc(-c2ccc(F)cc2)c1-c1ccc(C(=O)Nc2ccc(N3CCN(C)CC3)cc2)o1` [Compound 121, 5-(4-(4-fluorophenyl)-1-isopropyl-1H-imidazol-5-yl)-N-(4-(4-methylpiperazin-1-yl)phenyl)furan-2-carboxamide]: “+ (>100 μM/min/mg as)”. As to `CC(C)n1cnc(-c2ccc(F)cc2)c1-c1ccc(C(=O)Nc2ccc(CCO)cc2)o1` [Compound 126, 5-(4-(4-fluorophenyl)-1-isopropyl-1H-imidazol-5-yl)-N-(4-(2-hydroxyethyl)phenyl)furan-2-carboxamide], the “Human Liver Microsome (μM/min/mg)” value was “+ (>100 μM/min/mg as)”. Next, `CC(C)n1cnc(-c2ccc(F)cc2)c1-c1cccc(C(=O)Nc2ccc(N3CCN(C)CC3)cc2)n1` [Compound 127]: “+ (>100 μM/min/mg as)”; `CC(C)n1cnc(-c2ccc(F)cc2)c1-c1cccc(C(=O)Nc2ccc(N3CCN(CCO)CC3)cc2)n1` [Compound 128]: “+ (>100 μM/min/mg as)”. Next, `CN1CCN(c2ccc(NC(=O)c3c[nH]c(-c4c(-c5ccc(F)cc5)ncn4C(F)F)n3)cc2)CC1` [Compound 130, 3′-(difluoromethyl)-5′-(4-fluorophenyl)-N-(4-(4-methylpiperazin-1-yl)phenyl)-1H,3′H-[2,4′-biimidazole]-4-carboxamide]: “++ (10-100 μM/min/mg as ++)”; `CC(C)n1cnc(-c2ccc(F)cc2)c1-c1cccc(C(=O)Nc2ccc(CCC(=O)O)cc2)n1` [Compound 131]: “+++ (1-10 μM/min/mg as +++)”.

For the molecule `CC(C)n1cnc(-c2ccc(F)cc2)c1-c1nc(C(=O)Nc2ccc(CCCCC(=O)O)cc2)c[nH]1` [Compound 132, 5-(4-(5′-(4-fluorophenyl)-3′-isopropyl-1H,3′H-[2,4′-biimidazole]-4-carboxamido)phenyl)pentanoic acid], the “Human Liver Microsome (μM/min/mg)” value is reported as “+++ (1-10 μM/min/mg as +++)”. The value for `CN1CCN(c2ccc(NC(=O)c3c[nH]c(-c4c(-c5ccc(F)cc5)ncn4CC(C)(C)C)n3)cc2)CC1` [Compound 135, 5′-(4-fluorophenyl)-N-(4-(4-methylpiperazin-1-yl)phenyl)-3′-neopentyl-1H,3′H-[2,4′-biimidazole]-4-carboxamide] was “+ (>100 μM/min/mg as)”; that for `CC(C)n1cnc(-c2ccc(Cl)cc2)c1-c1nc(C(=O)Nc2ccc(CCC(=O)O)cc2)c[nH]1` [Compound 137, 3-(4-(5′-(4-chlorophenyl)-3′-isopropyl-1H,3′H-[2,4′-biimidazole]-4-carboxamido)phenyl)propanoic acid] was “+++ (1-10 μM/min/mg as +++)”. Next, `CC(C)n1cnc(-c2ccc(Cl)cc2)c1-c1nc(C(=O)Nc2ccc(N3CCN(CCO)CC3)cc2)c[nH]1` [Compound 139, 5′-(4-chlorophenyl)-N-(4-(4-(2-hydroxyethyl)piperazin-1-yl)phenyl)-3′-isopropyl-1H,3′H-[2,4′-biimidazole]-4-carboxamide]: “++ (10-100 μM/min/mg as ++)”. The value for `CC(C)n1cnc(-c2ccc(C(F)(F)F)cc2)c1-c1nc(C(=O)Nc2ccc(N3CCN(C)CC3)cc2)c[nH]1` [Compound 142, 3′-isopropyl-N-(4-(4-methylpiperazin-1-yl)phenyl)-5′-(4-(trifluoromethyl)phenyl)-1H,3′H-[2,4′-biimidazole]-4-carboxamide] was “+ (>100 μM/min/mg as)”; that for `CC(C)n1cnc(-c2ccc(F)c(F)c2)c1-c1nc(C(=O)Nc2ccc(N3CCN(CCO)CC3)cc2)c[nH]1` [Compound 146, 5′-(3,4-difluorophenyl)-N-(4-(4-(2-hydroxyethyl)piperazin-1-yl)phenyl)-3′-isopropyl-1H,3′H-[2,4′-biimidazole]-4-carboxamide] was “++ (10-100 μM/min/mg as ++)”; that for `CC(C)n1cnc(-c2ccc(F)c(F)c2)c1-c1nc(C(=O)Nc2ccc(N3CCN(C)CC3)cc2)c[nH]1` [Compound 156, 5′-(3,4-difluorophenyl)-3′-isopropyl-N-(4-(4-methylpiperazin-1-yl)phenyl)-1H,3′H-[2,4′-biimidazole]-4-carboxamide] was “++ (10-100 μM/min/mg as ++)”. For the molecule `O=C(Nc1ccc(N2CCN(CCO)CC2)cc1)c1c[nH]c(-c2c(-c3ccc(F)cc3)ncn2[C@H]2CC[C@H](O)CC2)n1` [Compound 158, 5′-(4-fluorophenyl)-3′-((1r,4r)-4-hydroxycyclohexyl)-N-(4-(4-(2-hydroxyethyl)piperazin-1-yl)phenyl)-1H,3′H-[2,4′-biimidazole]-4-carboxamide], the “Human Liver Microsome (μM/min/mg)” value is “+++ (1-10 μM/min/mg as +++)”. The value for `CN1CCN(c2ccc(NC(=O)c3c[nH]c(-c4c(-c5ccc(F)cc5)ncn4[C@H]4CC[C@H](O)CC4)n3)cc2)CC1` [Compound 159, 5′-(4-fluorophenyl)-3′-((1r,4r)-4-hydroxycyclohexyl)-N-(4-(4-methylpiperazin-1-yl)phenyl)-1H,3′H-[2,4′-biimidazole]-4-carboxamide] was “++ (10-100 μM/min/mg as ++)”.

`C[N+]1([O-])CCN(c2ccc(NC(=O)c3c[nH]c(-c4c(-c5ccc(F)cc5)ncn4CC(F)(F)F)n3)cc2)CC1` [Compound 166, 4-(4-(5′-(4-fluorophenyl)-3′-(2,2,2-trifluoroethyl)-1H,3′H-[2,4′-biimidazole]-4-carboxamido)phenyl)-1-methylpiperazine 1-oxide]: the “Human Liver Microsome (μM/min/mg)” value was “+++ (1-10 μM/min/mg as +++)”. The value for `O=C(Nc1ccc(N2CCNCC2)cc1)c1c[nH]c(-c2c(-c3ccc(F)cc3)ncn2CC(F)(F)F)n1` [Compound 167, 5′-(4-fluorophenyl)-N-(4-(piperazin-1-yl)phenyl)-3′-(2,2,2-trifluoroethyl)-1H,3′H-[2,4′-biimidazole]-4-carboxamide] was “++ (10-100 μM/min/mg as ++)”; that for `CN1CCN(c2ccc(NC(=O)c3c[nH]c(-c4c(-c5ccc(F)cc5)ncn4C4CCC(O)CC4)n3)cc2)CC1` (stereo not shown) [Compound 172] was “+++ (1-10 μM/min/mg as +++)”; that for `CC(C)n1cnc(-c2ccc(F)cc2)c1-c1nc(C(=O)Nc2ccc(N3CCNCC3)cc2)c[nH]1` [Compound 181, 5′-(4-fluorophenyl)-3′-isopropyl-N-(4-(piperazin-1-yl)phenyl)-1H,3′H-[2,4′-biimidazole]-4-carboxamide] was “++ (10-100 μM/min/mg as ++)”.

The values are drawn from US11530199B2, “Analogs for the treatment of disease” (Insilico Medicine IP Limited, priority 2021, dated 2022).
